Assay results published in article PMC10985088, “Synthesis and biological evaluation of echinomycin analogues as potential colon cancer agent” (Scientific Reports, 2024).
“And” between values parts separate entries of the source, which are not always exact repeats. Identical values can stand only once.

Experiments:
SW620 cells = assay: WST-8 cytotoxicity assay, SW620; details: for IC50: read-out: IC50 SW620, human colon cancer cell, 72 h, mean ± SE (n = 3)
Protocol: (§1) With a range of chromophore analogues in hand, their toxicity to SW620 cells was investigated by WST assays.
(§2) Basically, the evaluation was performed using methods previously reported by our group[20],[23]. Cytotoxic activities of compounds against MIA PaCa-2 (American Type Culture Collection), SW620 (European Collection of Authenticated Cell Cultures) were measured by WST-8 assay according to manufacturer’s protocol. Briefly, cells (1 × 10^4 cells/well) in a 96-well plate were cultured in medium (for MIA PaCa-2, D-MEM (Wako, Japan) containing 10% fetal bovine serum (Funakoshi, Japan), 100 units/mL penicillin G and 100 µg/mL streptomycin (Wako, Japan), for SW620, RPMI-1640 (Wako, Japan) containing 10% fetal bovine serum, 100 units/mL penicillin G and 100 µg/mL streptomycin) were cultured at 37 °C for 24 h under 5% CO2 atmosphere. Then, cells were treated with test compounds (final DMSO concentration was 1%) at 37 °C for 72 h under 5% CO2 atmosphere. Then, cells were treated with a solution of Cell Counting Kit-8® (Dojindo, Japan) for 3 h. After that, cell viabilities were determined based on the measurement of absorption at 450 nm of the wells by using TECAN Infinite® M200 microplate reader. The results were expressed as a percentage of the negative control (cells treated with DMSO only), and that value was fixed at 100%.

MIA PaCa-2 cells = details: read-out: IC50 MIA PaCa-2; human pancreatic carcinoma cell, 72 h, mean ± SE (n = 3)
Protocol: as §1, §2

| Structure (SMILES) | IC50 (SW620 cells) | IC50 (MIA PaCa-2 cells) [µM] | cytotoxicity to SW620 cells (in words) (SW620 cells) |
| --- | --- | --- | --- |
| CC(C)[C@H]1C(=O)OC[C@@H](NC(=O)c2cc3ccccc3s2)C(=O)N[C@@H](C)C(=O)N(C)[C@H]2CSC[C@@H](C(=O)N1C)N(C)C(=O)[C@H](C)NC(=O)[C@H](NC(=O)c1cc3ccccc3s1)COC(=O)[C@H](C(C)C)N(C)C2=O [Compound 14, {N-(Benzothiophene-2-carbonyl)-D-Ser-L-Ala-N-Boc-N-Me-L-Cys-N-Me-L-Val}2 sulfide] | > 10 µM | > 10 |  |
| CC(C)[C@H]1C(=O)OC[C@@H](NC(=O)c2ccc(C(=O)c3ccccc3)cc2)C(=O)N[C@@H](C)C(=O)N(C)[C@H]2CSC[C@@H](C(=O)N1C)N(C)C(=O)[C@H](C)NC(=O)[C@H](NC(=O)c1ccc(C(=O)c3ccccc3)cc1)COC(=O)[C@H](C(C)C)N(C)C2=O [Compound 18, {N-(4-Benzoylphenylcarbonyl)-D-Ser-L-Ala-N-Boc-N-Me-L-Cys-N-Me-L-Val}2 sulfide] | > 10 µM | > 10 | lost their cytotoxicity |
| CC(C)[C@H]1C(=O)OC[C@@H](NC(=O)c2c[nH]c3ccccc23)C(=O)N[C@@H](C)C(=O)N(C)[C@H]2CSC[C@@H](C(=O)N1C)N(C)C(=O)[C@H](C)NC(=O)[C@H](NC(=O)c1c[nH]c3ccccc13)COC(=O)[C@H](C(C)C)N(C)C2=O [Compound 9, {N-(Indol-3-carbonyl)-D-Ser-L-Ala-N-Boc-N-Me-L-Cys-N-Me-L-Val}2 sulfide] | > 10 µM | > 10 |  |
| CC(C)[C@H]1C(=O)OC[C@@H](NC(=O)c2cc3ccccc3[nH]2)C(=O)N[C@@H](C)C(=O)N(C)[C@H]2CSC[C@@H](C(=O)N1C)N(C)C(=O)[C@H](C)NC(=O)[C@H](NC(=O)c1cc3ccccc3[nH]1)COC(=O)[C@H](C(C)C)N(C)C2=O [Compound 8, {N-(Indol-2-carbonyl)-D-Ser-L-Ala-N-Boc-N-Me-L-Cys-N-Me-L-Val}2 sulfide] | > 10 µM | > 10 |  |
| CC(C)[C@H]1C(=O)OC[C@@H](NC(=O)c2ccc3ncoc3c2)C(=O)N[C@@H](C)C(=O)N(C)[C@H]2CSC[C@@H](C(=O)N1C)N(C)C(=O)[C@H](C)NC(=O)[C@H](NC(=O)c1ccc3ncoc3c1)COC(=O)[C@H](C(C)C)N(C)C2=O [Compound 16, {N-(Benzoxazole-6-carbonyl)-D-Ser-L-Ala-N-Boc-N-Me-L-Cys-N-Me-L-Val}2 sulfide] | > 10 µM | > 10 |  |
| CC(C)[C@H]1C(=O)OC[C@@H](NC(=O)c2ccc3[nH]ccc3c2)C(=O)N[C@@H](C)C(=O)N(C)[C@H]2CSC[C@@H](C(=O)N1C)N(C)C(=O)[C@H](C)NC(=O)[C@H](NC(=O)c1ccc3[nH]ccc3c1)COC(=O)[C@H](C(C)C)N(C)C2=O [Compound 10, {N-(Indol-5-carbonyl)-D-Ser-L-Ala-N-Boc-N-Me-L-Cys-N-Me-L-Val}2 sulfide] | > 10 µM | > 10 |  |
| CC(C)[C@H]1C(=O)OC[C@@H](NC(=O)c2ccc3ocnc3c2)C(=O)N[C@@H](C)C(=O)N(C)[C@H]2CSC[C@@H](C(=O)N1C)N(C)C(=O)[C@H](C)NC(=O)[C@H](NC(=O)c1ccc3ocnc3c1)COC(=O)[C@H](C(C)C)N(C)C2=O [Compound 15, {N-(Benzoxazole-5-carbonyl)-D-Ser-L-Ala-N-Boc-N-Me-L-Cys-N-Me-L-Val}2 sulfide] | > 10 µM | > 10 |  |
| CC(C)[C@H]1C(=O)OC[C@@H](NC(=O)c2ccc3ccccc3c2)C(=O)N[C@@H](C)C(=O)N(C)[C@H]2CSC[C@@H](C(=O)N1C)N(C)C(=O)[C@H](C)NC(=O)[C@H](NC(=O)c1ccc3ccccc3c1)COC(=O)[C@H](C(C)C)N(C)C2=O [Compound 7, {N-(Naphthalene-2-carbonyl)-D-Ser-L-Ala-N-Boc-N-Me-L-Cys-N-Me-L-Val}2 sulfide] | > 10 µM | > 10 | completely diminished activity |
| CC(C)[C@H]1C(=O)OC[C@@H](NC(=O)c2cnccn2)C(=O)N[C@@H](C)C(=O)N(C)[C@H]2CSC[C@@H](C(=O)N1C)N(C)C(=O)[C@H](C)NC(=O)[C@H](NC(=O)c1cnccn1)COC(=O)[C@H](C(C)C)N(C)C2=O [Compound 20, {N-(Pyradine-2carbonyl)-D-Ser-L-Ala-N-Boc-N-Me-L-Cys-N-Me-L-Val}2 sulfide] |  |  | lost their cytotoxicity |
| CC(C)[C@H]1C(=O)OC[C@@H](NC(=O)c2cnc3ccccc3c2)C(=O)N[C@@H](C)C(=O)N(C)[C@H]2CSC[C@@H](C(=O)N1C)N(C)C(=O)[C@H](C)NC(=O)[C@H](NC(=O)c1cnc3ccccc3c1)COC(=O)[C@H](C(C)C)N(C)C2=O [Compound 5, {N-(Quinoline-3-carbonyl)-D-Ser-L-Ala-N-Boc-N-Me-L-Cys-N-Me-L-Val}2 sulfide] | 1.21 ± 0.035 µM | 0.399 ± 0.076 |  |
| CC(C)[C@H]1C(=O)OC[C@@H](NC(=O)c2cnc3ccccc3n2)C(=O)N[C@@H](C)C(=O)N(C)[C@H]2CSC[C@@H](C(=O)N1C)N(C)C(=O)[C@H](C)NC(=O)[C@H](NC(=O)c1cnc3ccccc3n1)COC(=O)[C@H](C(C)C)N(C)C2=O [Compound 2] | 0.026 µM and 0.0256 µM | 0.0081 ± 0.001 |  |
| CC(C)[C@H]1C(=O)OC[C@@H](NC(=O)c2ccc3ccccc3n2)C(=O)N[C@@H](C)C(=O)N(C)[C@H]2CSC[C@@H](C(=O)N1C)N(C)C(=O)[C@H](C)NC(=O)[C@H](NC(=O)c1ccc3ccccc3n1)COC(=O)[C@H](C(C)C)N(C)C2=O [Compound 4] | 0.0205 ± 0.0031 µM | 0.0058 ± 0.0009 | slightly better cytotoxicity than 2 |
| CC(C)[C@H]1C(=O)OC[C@@H](NC(=O)c2cc3ccccc3o2)C(=O)N[C@@H](C)C(=O)N(C)[C@H]2CSC[C@@H](C(=O)N1C)N(C)C(=O)[C@H](C)NC(=O)[C@H](NC(=O)c1cc3ccccc3o1)COC(=O)[C@H](C(C)C)N(C)C2=O [Compound 13, {N-(Benzofurane-2-carbonyl)-D-Ser-L-Ala-N-Boc-N-Me-L-Cys-N-Me-L-Val}2 sulfide] | > 10 µM | > 10 |  |
| CC(C)[C@H]1C(=O)OC[C@@H](NC(=O)c2ccc3ncccc3c2)C(=O)N[C@@H](C)C(=O)N(C)[C@H]2CSC[C@@H](C(=O)N1C)N(C)C(=O)[C@H](C)NC(=O)[C@H](NC(=O)c1ccc3ncccc3c1)COC(=O)[C@H](C(C)C)N(C)C2=O [Compound 6, {N-(Quinoline-6-carbonyl)-D-Ser-L-Ala-N-Boc-N-Me-L-Cys-N-Me-L-Val}2 sulfide] | 1.19 ± 0.187 µM | 0.327 ± 0.066 |  |
| CC(C)[C@H]1C(=O)OC[C@@H](NC(=O)c2ccc3cc[nH]c3c2)C(=O)N[C@@H](C)C(=O)N(C)[C@H]2CSC[C@@H](C(=O)N1C)N(C)C(=O)[C@H](C)NC(=O)[C@H](NC(=O)c1ccc3cc[nH]c3c1)COC(=O)[C@H](C(C)C)N(C)C2=O [Compound 11, {N-(Indol-6-carbonyl)-D-Ser-L-Ala-N-Boc-N-Me-L-Cys-N-Me-L-Val}2 sulfide] | > 10 µM | > 10 |  |
| CC(C)[C@H]1C(=O)OC[C@@H](NC(=O)c2ccc3c(c2)C(=O)c2ccccc2C3=O)C(=O)N[C@@H](C)C(=O)N(C)[C@H]2CSC[C@@H](C(=O)N1C)N(C)C(=O)[C@H](C)NC(=O)[C@H](NC(=O)c1ccc3c(c1)C(=O)c1ccccc1C3=O)COC(=O)[C@H](C(C)C)N(C)C2=O [Compound 19, {N-(Anthraquinone-2carbonyl)-D-Ser-L-Ala-N-Boc-N-Me-L-Cys-N-Me-L-Val}2 sulfide] | > 10 µM | > 10 | lost their cytotoxicity |
| CC(C)[C@H]1C(=O)OC[C@@H](NC(=O)c2ccc3ncsc3c2)C(=O)N[C@@H](C)C(=O)N(C)[C@H]2CSC[C@@H](C(=O)N1C)N(C)C(=O)[C@H](C)NC(=O)[C@H](NC(=O)c1ccc3ncsc3c1)COC(=O)[C@H](C(C)C)N(C)C2=O [Compound 17] | > 10 µM | > 10 |  |
| CC(C)[C@H]1C(=O)OC[C@@H](NC(=O)c2cccc3cc[nH]c23)C(=O)N[C@@H](C)C(=O)N(C)[C@H]2CSC[C@@H](C(=O)N1C)N(C)C(=O)[C@H](C)NC(=O)[C@H](NC(=O)c1cccc3cc[nH]c13)COC(=O)[C@H](C(C)C)N(C)C2=O [Compound 12, {N-(Indol-7-carbonyl)-D-Ser-L-Ala-N-Boc-N-Me-L-Cys-N-Me-L-Val}2 sulfide] | > 10 µM | > 10 |  |
